3 compounds from patent publication US7387807B2, “Topical composition comprising feverfew” (Johnson & Johnson Consumer France, SAS, Roc Division, priority 1999, dated 2008) can be followed below.

Common to all, as to type: in vivo
Assay [1] has as its system human volunteers. The assay can be described thus: Treatment of UVB induced erythema, human study. As to conditions: 2 mg/cm^2 immediately after 2MED UV and 5 and 8 hours later. On the procedure: Ten healthy volunteers were irradiated with 2MED UV light on five distinct spots of the volar forearms. Test product was applied (2 mg/cm^2) on the irradiated sites immediately after irradiation, and 5 and 8 hours later. Erythema scores were measured before irradiation and 1, 4, 7 and 24 hours later. The following reductions in erythema were obtained: […]

Assay [2] concerns human volunteers. The assay can be described thus: Treatment of trauma (stratum corneum stripping) induced erythema, human study. As to conditions: applied for 2 hours immediately after stripping, total 2 hour period, compared to the vehicle. On the procedure: Test product was applied to the ventral side of the forearm for 2 hours, immediately after stripping. Chromameter measurements were made prior to stripping and at 0.5, 1, 1.5 and 2 hours post stripping. The Colorimetric Erythema Index (CEI) was calculated for each time point. For the total 2 hour period, and compared to the vehicle, the following reductions in erythema were obtained: […]

Assay [3] relates to Albino male CD-1 mice. Nature of the assay: Oxazolone contact hypersensitivity, mouse ear. As to conditions: 0.1% topical, 20 μL to ear 1 hour after challenge; ear weight at 24 hours. On the procedure:
The following experiments were carried out to test the effect of feverfew and substantially parthenolide-free feverfew in a contact […] assay. In this assay, the compositions of the invention were evaluated against hydrocortisone, a steroid known to inhibit contact hypersensitivity. Albino male CD-1 mice, 7-9 weeks old, were induce on the shaved abdomen with 50 μL of 3% oxazolone in acetone/corn oil Day 0). On Day 5, a 20 μL volume of 2% oxazolone in acetone was […] to the dorsal left ear of the mouse. […] The right ear was not treated. The mice were sacrificed by CO2 inhalation 24 hours after the oxazolone challenge, the left and right ears were removed and a 7 mm biopsy was taken from each ear and weighed. The difference in biopsy weights between the right and left ear was calculated. Antiinflammatory effects of compounds are evident as an inhibition of the increase in ear weight.

Assay [4] deals with Albino male CD-1 mice. The assay can be described thus: Phorbol ester (TPA) induced mouse ear edema. Particulars: 0.1% topical, 20 μL immediately after TPA; 5.5 hours. Here is the method: The following experiments were carried out to test the effect of feverfew and substantially parthenolide-free feverfew in a phorbol ester PITA) induced edema assay. […] Albino male CD-1 mice, 7-9 weeks old, were used. A 0.005% (w/v) TPA solution was made in acetone. A 20 μL volume of this TPA solution was applied to the dorsal left ear of the mouse. Test compounds were applied immediately to the left ear (20 μL) after TPA in a 70% ethanol/propylene glycol vehicle. The right ear was not treated. The mice were sacrificed by CO2 inhalation (5.5 hours after TPA), the left and right ears were removed and a 7 mm biopsy was removed from each ear and weighed. The difference in biopsy weights between the right and left ear was calculated.

Assay [5] deals with human volunteers. Nature of the assay: Prevention of trauma (stratum corneum stripping) induced erythema, human study. Particulars: applied twice daily for 2 days before stripping, total 2 hour period, compared to the vehicle. On the procedure:
Test product was applied to the ventral side of the forearm twice daily for 2 consecutive days. […] Chromameter measurements were made prior to stripping and at 0.5, 1, 1.5 and 2 hours posts tripping. The Colorimetric Erythema Index (CEI) was calculated for each time point. For the total 2 hour period, and compared to the vehicle, the following reductions in erythema were obtained;

Assay [6] relates to human volunteers. Nature of the assay: Prevention of UVB induced erythema, human study. As to conditions: 2 mg/cm^2 twice daily for 2 days before 2MED UVB. Here is the method:
Test product was applied to 5 different locations on the volar forearm twice daily for 2 consecutive days (2 mg/cm^2). The sites were exposed to 2MED UVB. Chromameter measurements were made prior to irradiation and at 18, 24, 42 and 48 hours post irradiation. The Colorimetric Erythema Index (CEI) was calculated for each time point. The following reductions in erythema were obtained: […]

In assay [7] the test system is Albino male CD-1 mice. Nature of the assay: Arachidonic acid induced ear edema. Particulars: 20 μl immediately after AA, 1 hour. Here is the method:
In this in vivo model, feverfew's ability to reduce arachidonic acid induced edema was compared to the known cycloxygenase/lipoxgenase inhibitor tepoxalin. Albino male CD-1 mice, 7-9 weeks old, were used. A 20% (w/v) arachidonic acid (AA) solution was made in acetone. A 20 μl volume of the AA was applied to the dorsal left ear of the mouse. Test compounds (20 μl) were applied immediately to the left ear after AA in a 70% ethanol/30% propylene glycol vehicle. The right ear was not treated. The mice were sacrificed by CO2 inhalation 1 hour after AA, the left and right ears were removed and a 7 mm biopsy was removed from each ear and weighed. The difference in biopsy weights between the right and left ear was calculated. Antiinflammatory effects of compounds are evident as an inhibition of the increase in ear weight.

As for `C[C@]12CCC(=O)C=C1CC[C@@H]1[C@@H]2[C@@H](O)C[C@@]2(C)[C@H]1CC[C@]2(O)C(=O)CO` [Hydrocortisone], the “Reduction of Erythema (%)” value in the assay on human volunteers [1] (0.1%) is recorded as 3.2%; with human volunteers [1] (1%) it was 17.7%; in the assay on human volunteers [2] (0.1%), −3%; with human volunteers [2] (1%) it was 14%; with human volunteers [5] (0.1%), 10%; in the assay on human volunteers [5] (1%), 19%. Besides, the “Reduction of Erythema (%)” value stood at 2.5% with human volunteers [6] (0.1%) and 5.7% with human volunteers [6] (1%). Also, in the assay on Albino male CD-1 mice [3], the “Oxazolone contact hypersensitivity % Inhibition, Study 1” value is reported as 96.9%. For the same compound, the “Oxazolone contact hypersensitivity % Inhibition, Study 2” value in the assay on Albino male CD-1 mice [3] is on record as 87.6%. Moreover, the “Oxazolone contact hypersensitivity % Inhibition, Study 3” value in the assay with Albino male CD-1 mice [3] is recorded as 91.0%. Moreover, the “TPA induced ear edema, inhibition of the increase in ear weight, Study 1” value in the assay with Albino male CD-1 mice [4] stood at 96.9.
Take `C[C@@H]1C[C@H]2[C@@H]3CCC4=CC(=O)C=C[C@]4(C)[C@@]3(F)[C@@H](O)C[C@]2(C)[C@@]1(O)C(=O)CO` [Dexamethasone]: the “TPA induced ear edema, inhibition of the increase in ear weight, Study 2” value in the assay on Albino male CD-1 mice [4] came out at 97.2.
In the case of `COc1ccc(-n2nc(CCC(=O)N(C)O)cc2-c2ccc(Cl)cc2)cc1` [Tepoxalin], the figures for the “Arachidonic acid induced ear edema % Inhibition” value in the assay with Albino male CD-1 mice [7] (0.1% topical), in the assay on Albino male CD-1 mice [7] (1.0% topical) and in the assay on Albino male CD-1 mice [7] (2.0% topical) were 10.84%, 42.38% and 61.06%, respectively.
